The values that follow come from paper PMC8778818, “Synthesis, Structural Characterization and Anticancer Activity of New 5-Trifluoromethyl-2-thioxo-thiazolo[4,5-d]pyrimidine Derivatives” (Pharmaceuticals, 2022).

As a reminder, the IC50 is the concentration that inhibits the measured activity by half. Read a high IC50 as lower potency. One may read the GI50 as the concentration that inhibits growth by half. Broadly, the LC50 is the concentration that kills 50% of the test population.

One assay concerns ACHN. The experiment in a line: NCI-60 screen, Renal Cancer ACHN. In kind it is cell-based, human. The following applies: for Growth of Cells (%): 10^−5 M one dose.
Another assay relates to IGROV1. As to the kind of experiment: NCI-60 screen, Ovarian Cancer IGROV1. Type of assay: cell-based. The following applies: for Growth of Cells (%): IGROV1, 10^−5 M one dose.
Another assay relates to HOP-62. The experiment in a line: NCI-60 screen, Non-Small Cell Lung Cancer HOP-62. The following applies: for Growth of Cells (%): HOP-62, 10^−5 M one dose. Type of assay: cell-based.
The next assay concerns OVCAR-4. As to the kind of experiment: NCI-60 screen, Ovarian Cancer OVCAR-4. In kind it is cell-based, human. The following applies: for Growth of Cells (%): OVCAR-4, 10^−5 M one dose.
The next assay concerns HL-60(TB). The experiment in a line: NCI-60 screen, Leukemia HL-60(TB). In kind it is cell-based, human. The following applies: for Growth of Cells (%): 10^−5 M one dose.
The subject of a further assay is LOX IMVI. The experiment in a line: NCI-60 screen, Melanoma LOX IMVI. Type of assay: cell-based, human. The following applies: for Growth of Cells (%): 10^−5 M one dose.
The next assay relates to DU145. As to the kind of experiment: MTT cell viability assay, DU145. In kind it is cell-based, human. The following applies: Homo sapiens, DU-145; DU145, MTT, 72 h, mean ± SD. The method, then:
Twelve compounds (2a-e, 3a-d and 4a-c) at a concentration range of 50–5000 μM were tested for their antiproliferative potential against four human cancer cell lines (A375—melanotic melanoma, C32—amelanotic melanoma, DU145—prostate cancer androgen-independent, MCF-7/WT—breast adenocarcinoma) and two normal cell lines: Chinese Hamster Ovary (CHO-K1) and immortalized human keratinocytes from histologically normal skin (HaCaT).
To determine the antiproliferative activity of newly synthesized compounds, the following cell lines were used: human melanotic melanoma cell line (A375), human amelanotic melanoma cell line (C32), human breast adenocarcinoma cell line (MCF-7/WT), human prostate cancer androgen-independent (DU145) and two normal cell lines: hamster ovarian (CHO-K1) and immortalized human keratinocytes from histologically normal skin (HaCaT). The cells were obtained from the cell line bank of the Department of Molecular and Cellular Biology, Wroclaw Medical University. A375, C32, MCF-7/WT, DU145 and HaCaT cells were grown in a monolayer cultured in Dulbecco’s Modified Eagle’s Medium (DMEM, Sigma-Aldrich, Poznań, Poland), supplemented with 10% of fetal bovine serum (FBS, Gibco, Paisley, UK) and 1% of antibiotics (penicillin/streptomycin, Sigma-Aldrich) and CHO-K1 were grown in HAM’s F-12 medium (Sigma-Aldrich), supplemented with 10% fetal bovine serum (FBS, Gibco) and 1% of antibiotics (penicillin/streptomycin, Sigma-Aldrich). Cell lines were cultured in the polystyrene flasks 25 or 75 cm^2 (Thermo Fisher Scientific, Waltham, MA, USA), which were stored in 37 °C and 5% CO2 in a humidified 95% atmosphere (SteriCult, Thermo Scientific, Alab). The cell medium was exchanged twice a week. The exponentially growing cells were used throughout the experiments. The cells were rinsed with phosphate-buffered saline (PBS, Sigma-Aldrich) and trypsinized by Trypsin-EDTA 0.25% solution (Sigma-Aldrich).
The influence of the compounds was performed in a monolayer culture on cancer and normal cells. Compounds were initially dissolved in DMSO; further dilutions of the compound were performed in Dulbecco’s Modified Eagle’s Medium supplemented with 10% FBS. Compounds were tested in a 50–5000 µM concentration range. In the in vitro experiments, the concentrations of DMSO in the final solution of the compounds were used 0.05%; 0.1%; 0.5%; 1%, respectively.
Cell viability was determined using the MTT colorimetric assay. All cell lines were seeded into 96-well plates to a density of 3 × 10^4 cells/well. After 24 h, the culture supernatants were removed and appropriate dilutions of compounds in the culture medium (200 µL/well) were added to the cells’ monolayer cultures and incubated for an additional 72 h. After 72 h of exposition to the compounds and the removal of the culture medium, cell viability was determined by reducing the yellow dye 3-(4,5-dimethyl-2-thiazol)-2,5-diphenyl-2H-tetrazolium bromide (MTT assay, Sigma Saint Louis, MO, USA; In Vitro Toxicology Assay) to a blue formazan product. The absorbance of the resulting solutions in three duplicate experiments was measured at the wavelength of 560 nm in a microplate reader (EnSpire, Perkin Elmer, Kraków, Poland). MTT assay is a colorimetric method that estimates the rate of metabolism in viable cells. Absorbance is directly proportional to the number of viable cells. All the experiments were performed three times and the mean absorbance values were calculated. The methodology for the evaluation of the growth of human cancer and normal cells was described previously. The cell viability in each group was expressed as a percentage of control (untreated) cells.
(In general: Tetrazolium assays rely on reduction of a dye to a coloured formazan, in cell work by metabolically active cells.)

In the next assay the test system is NCI-H226. The experiment in a line: NCI-60 screen, Non-Small Cell Lung Cancer NCI-H226. Type of assay: cell-based, human. The following applies: for Growth of Cells (%): NCI-H226, 10^−5 M one dose.
The next assay deals with HOP-92. The experiment in a line: NCI-60 screen, Non-Small Cell Lung Cancer HOP-92. Type of assay: cell-based, human. The note with it: for Growth of Cells (%): HOP-92, 10^−5 M one dose.
Setting [1] is: Homo sapiens, five doses 10^−4–10^−8 M.
Setting [2] is: Homo sapiens, HOP-92, five doses 10^−4–10^−8 M.

Molecules are shown by their SMILES.

As for `CCNc1nc(C(F)(F)F)nc2c1sc(=S)n2-c1ccccc1` [Compound 4b, 7-(ethylamino)-3-phenyl-5-(trifluoromethyl)[1, 3]thiazolo[4,5-d]pyrimidine-2(3H)-thione], the “Growth of Cells (%)” value worked out at 93.13% in the assay on ACHN; 101.57% in the assay with IGROV1; 86.06% in the assay on HOP-62; 98.24% in the assay with OVCAR-4; 98.91% in the assay on HL-60(TB); 88.57% in the assay with LOX IMVI. For the same molecule, the “Growth of Cells (%)” value in the assay with NCI-H226 is 88.51%. The molecule further returned an IC50 in the assay with DU145 of 323 ± 13.8 µM.
For the molecule `Fc1ccc(CNc2nc(C(F)(F)F)nc3c2sc(=S)n3-c2ccccc2)cc1` [Compound 4c], the “Growth of Cells (%)” value in the assay on ACHN was 99.14%; in the assay with IGROV1, 109.98%; in the assay on HOP-62 it was 92.88%; with OVCAR-4, 125.04%; with HL-60(TB), 93.41%; in the assay with LOX IMVI, 109.59%. The “Growth of Cells (%)” value amounted to 106.96% in the assay on HOP-92 and 112.41% in the assay with NCI-H226. For the same molecule, the IC50 with DU145 was 237 ± 10.3 µM.
Turning to `FC(F)(F)c1nc(Cl)c2sc(=S)n(-c3ccccc3)c2n1` [Compound 3b, 7-chloro-3-phenyl-5-(trifluoromethyl)[1, 3]thiazolo[4,5-d]pyrimidine-2(3H)-thione], the “Growth of Cells (%)” value was 27.40% in the assay on ACHN; 63.57% in the assay on IGROV1; 95.98% in the assay with HOP-62; 23.73% in the assay on OVCAR-4; −41.20% with HL-60(TB); 3.11% with LOX IMVI. Also, the “Growth of Cells (%)” value with HOP-92 is reported as −21.23%; in the assay on NCI-H226, 89.12%. Further, the GI50 is 1740 nM in the assay on ACHN (setting [1]); 1950 nM in the assay with IGROV1 (Homo sapiens, IGROV-1, IGROV1, five doses 10^−4–10^−8 M); 1860 nM with HOP-62 (Homo sapiens, HOP-62, read-out: log GI50 (converted)); 1780 nM in the assay with OVCAR-4 (Homo sapiens, OVCAR-4, five doses 10^−4–10^−8 M); 1550 nM in the assay with HL-60(TB) (setting [1]); 1780 nM with LOX IMVI (setting [1]). Further, the concentration for 50% growth inhibition (GI50) with HOP-92 (setting [2]) is 1260 nM; in the assay with NCI-H226 (Homo sapiens, NCI-H226, five doses 10^−4–10^−8 M), 13.8 µM. For the same molecule, the CC50 in the assay on ACHN (Homo sapiens, five doses 10^−4–10^−8 M, read-out: log LC50 (the source's name) (converted)) is 6.31 µM; with IGROV1 (Homo sapiens, IGROV-1, IGROV1, five doses 10^−4–10^−8 M, read-out: log LC50 (the source's name) (converted)) it was 7.59 µM; in the assay on HOP-62 (Homo sapiens, HOP-62, five doses 10^−4–10^−8 M, read-out: log LC50 (the source's name) (converted)) it was 6.31 µM; with OVCAR-4 (Homo sapiens, OVCAR-4, five doses 10^−4–10^−8 M, read-out: log LC50 (the source's name) (converted)), 7.24 µM; in the assay with NCI-H226 (Homo sapiens, NCI-H226, five doses 10^−4–10^−8 M, read-out: log LC50 (the source's name) (converted)), greater than 100 µM. In addition, the “log TGI” value was −5.48 log M in the assay with ACHN (five doses 10^−4–10^−8 M); −5.41 log M with IGROV1 (IGROV1, five doses 10^−4–10^−8 M); −5.46 log M with HOP-62 (HOP-62, five doses 10^−4–10^−8 M); −5.44 log M with OVCAR-4 (OVCAR-4, five doses 10^−4–10^−8 M); −5.41 log M in the assay with HL-60(TB) (five doses 10^−4–10^−8 M); −5.48 log M in the assay on LOX IMVI (five doses 10^−4–10^−8 M). In addition, the “log TGI” value in the assay with HOP-92 (HOP-92, five doses 10^−4–10^−8 M) is on record as −5.56 log M; in the assay on NCI-H226 (NCI-H226, five doses 10^−4–10^−8 M), −4.31 log M. The values for the 50% lethal concentration (LC50) in the assay with LOX IMVI (setting [1]) and in the assay with HOP-92 (setting [2]) were 6.17 µM and 5.89 µM, respectively. The same molecule gave an IC50 with DU145 of 55.1 ± 1.1 µM.
`O=c1[nH]c(C(F)(F)F)nc2c1sc(=S)n2-c1ccccc1` [Compound 2b, 3-phenyl-2-thioxo-5-(trifluoromethyl)-2,3-dihydro[1, 3]thiazolo[4,5-d]pyrimidin-7(6H)-one]: the “Growth of Cells (%)” value is 110.42% in the assay with ACHN; −5.14% in the assay on IGROV1; 117.19% with OVCAR-4; 149.39% in the assay with HL-60(TB); 84.58% in the assay with LOX IMVI; 97.54% with HOP-92. In addition, the “Growth of Cells (%)” value in the assay on NCI-H226 was 103.60%. The molecule also came in with an IC50 in the assay with DU145 of 356 ± 14.7 µM.
